Measured values: PMC2442904 (British Journal of Pharmacology, 2008)

Molecular target: thioredoxin-1 (Trx) (Homo sapiens, UniProt P10599)
Experiment: insulin reduction assay with pure human Trx preincubated with PMX464
Format: biochemical

Sequence of thioredoxin-1 (Trx) (P10599 2-105): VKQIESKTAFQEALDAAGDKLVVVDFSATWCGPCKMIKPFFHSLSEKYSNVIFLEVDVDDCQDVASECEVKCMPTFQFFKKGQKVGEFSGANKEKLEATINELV

O=C1C=CC(O)(c2nc3ccccc3s2)C=C1 [PMX464, 4-(benzothiazol-2-yl)-4-hydroxycyclohexa-2,5-dien-1-one hydrate]
IC50: 20 µM
